Reference: patent US10233179B2, “Thiazoles and uses thereof” (AbbVie Inc., priority 2013, dated 2019)
pEC50: −log10 of the molar value.

Assays:
HEp-2 cells = experiment: Cytotoxicity assay (MTT) in parallel with the antiviral assay; assay type: cell-based
Description: HEp-2 cells and RSV (Group A, Long Strain) were obtained from the American Type Culture Collection (Manassas, Va.). Cytotoxicity of the compounds was determined in experiments done in parallel with the antiviral assays. To do this, 100 μL of assay medium was added to the wells of HEp-2 cells pretreated with 100 μL serially diluted compounds as described above. After 4 days of incubation, the viability of the cells was determined by the MTT assay in the same way as detailed in the “Antiviral Assay” method. Results were expressed as 50% toxicity dose (TD50) values. Compounds were tested to determine both their antiviral and toxicity to determine their therapeutic window. Determination of the EC50 and TD50 of these active compounds were repeated one additional time to confirm the window.

[1] = test system: RSV (Group A, Long Strain); experiment: Antiviral cytopathic effect (CPE) protection assay, MTT readout; assay type: cell-based; conditions: human respiratory syncytial virus, 96 h; HEp-2 cells, 0.2 MOI RSV, 4 days incubation, protection from CPE by MTT
Description: HEp-2 cells and RSV (Group A, Long Strain) were obtained from the American Type Culture Collection (Manassas, Va.).
A cytopathic effect (CPE) protection assay was performed to determine the ability of a compound to protect the cells from viral infection and thus the CPE induced by viral infection. 96-Well plates were first seeded with 3×10^3 HEp-2 cells per well in Dulbecco's modified Eagle's medium (DMEM) containing 10% fetal bovine serum (FBS). One day after the cells were seeded, they were preincubated with serial dilutions of compounds prepared in 100 μL assay medium (DMEM mixed with F12 medium at a 1:1 ratio, supplemented with 2% FBS and 1 mM sodium pyruvate) for 1 hour at 37° C. 100 μL of assay medium containing 0.2 multiplicity of infection (MOI) of RSV was then added to each well of cells. In addition to wells containing infected cells incubated with compounds, each plate also contained replicates of two kinds of controls: (1) Virus control contained cells infected with 0.2 MOI of RSV in assay medium, (2) Uninfected cell control contained cells incubated with assay medium only. After 4 days of incubation at 37° C., the viability of cells was assessed using MTT (Thiazolyl blue tetrazolium bromide, Sigma). A stock solution of MTT, at a concentration of 4 mg/mL in phosphate-buffered saline, was added to all wells at 25 μL per well. Plates were further incubated for 4 hours, and each well was then treated with 50 μL of a solution containing 20% sodium dodecyl sulfate (SDS) and 0.02 N HCl. After an overnight incubation, the plates were measured on a BioTek® microtiter plate reader at wavelengths of 570 nm and 650 nm. The MTT detection is based on the fact that viable (uninfected) cells can reduce the tetrazolium salts into colored formazan products, which can then be quantitated by spectrometry. Based on the spectrometric absorbance of each sample, the percent of protection from CPE, which is an indicator of protection from viral infection, can be calculated for each compound and the 50% effective concentrations (EC50) can be calculated using a nonlinear regression curve fitting equation provided by the GraphPad Prism® 4 software.
Compounds were tested to determine both their antiviral and toxicity to determine their therapeutic window. Determination of the EC50 and TD50 of these active compounds were repeated one additional time to confirm the window.

[2] = uninfected HEp-2 cells, 4 days incubation, MTT viability

SMILES	MTT TD50 (HEp-2 cells; [2]) [µM]	pEC50 [1]	MTT TD50 (HEp-2 cells; human, 4 days) [µM]
c1cncc(C2(CN(Cc3cccn3-c3nncs3)Cc3cccn3-c3nncs3)CC2)c1 [Example 26, 1-[1-(pyridin-3-yl)cyclopropyl]-N,N-bis{[1-(1,3,4-thiadiazol-2-yl)-1H-pyrrol-2-yl]methyl}methanamine]	>100	5.96	
Cc1ccccc1CN(Cc1cccn1-c1nccs1)Cc1cccn1-c1nccs1 [Example 37, 1-(2-methylphenyl)-N,N-bis{[1-(1,3-thiazol-2-yl)-1H-pyrrol-2-yl]methyl}methanamine]	7.1	7.48	
c1cncc(C2(CCN(Cc3cccn3-c3nncs3)Cc3cccn3-c3nncs3)CC2)c1 [Example 24, 2-[1-(pyridin-3-yl)cyclopropyl]-N,N-bis{[1-(1,3,4-thiadiazol-2-yl)-1H-pyrrol-2-yl]methyl}ethanamine]	>100	5.54	
FC(F)n1ccnc1CN(Cc1cccn1-c1nccs1)Cc1cccn1-c1nccs1 [Example 59, 1-[1-(difluoromethyl)-1H-imidazol-2-yl]-N,N-bis{[1-(1,3-thiazol-2-yl)-1H-pyrrol-2-yl]methyl}methanamine]	35	5.39	
FC(F)(F)c1ccc(CN(Cc2cccn2-c2nccs2)Cc2cccn2-c2nccs2)cc1 [Example 34, 1-[1-(1,3-thiazol-2-yl)-1H-pyrrol-2-yl]-N-{[1-(1,3-thiazol-2-yl)-1H-pyrrol-2-yl]methyl}-N-[4-(trifluoromethyl)benzyl]methanamine]	34	5.47	
C[C@@H](c1ccccc1Cl)N(Cc1cccn1-c1nccs1)Cc1cccn1-c1nccs1 [Example 49, (1S)-1-(2-chlorophenyl)-N,N-bis{[1-(1,3-thiazol-2-yl)-1H-pyrrol-2-yl]methyl}ethanamine]	4.3	7.35	
Clc1cccc(Cl)c1CN(Cc1cccn1-c1nncs1)Cc1cccn1-c1nncs1 [Example 55, 1-(2,6-dichlorophenyl)-N,N-bis{[1-(1,3,4-thiadiazol-2-yl)-1H-pyrrol-2-yl]methyl}methanamine]	>32	< 4.49	
c1cc(CN(CCC2(c3ccncc3)CC2)Cc2cccn2-c2nncs2)n(-c2nncs2)c1 [Example 27, 2-[1-(pyridin-4-yl)cyclopropyl]-N,N-bis{[1-(1,3,4-thiadiazol-2-yl)-1H-pyrrol-2-yl]methyl}ethanamine]		6.09	>32
c1ccc(N(Cc2cccn2-c2nccs2)Cc2cccn2-c2nccs2)cc1 [Example 53, N,N-bis{[1-(1,3-thiazol-2-yl)-1H-pyrrol-2-yl]methyl}aniline]	>32	5.57	
N#Cc1cc(CN(Cc2cccn2-c2nccs2)Cc2cccn2-c2nccs2)cs1 [Example 67, 4-[(bis{[1-(1,3-thiazol-2-yl)-1H-pyrrol-2-yl]methyl}amino)methyl]thiophene-2-carbonitrile]	>32	7.09	
FC(F)(F)c1ccc(CN(Cc2cccn2-c2nncs2)Cc2cccn2-c2nncs2)cc1 [Example 54, 1-[1-(1,3,4-thiadiazol-2-yl)-1H-pyrrol-2-yl]-N-{[1-(1,3,4-thiadiazol-2-yl)-1H-pyrrol-2-yl]methyl}-N-[4-(trifluoromethyl)benzyl]methanamine]	21	< 4.68	
c1cc(CN(Cc2cccn2-c2nccs2)CC2C[C@H]3CC[C@@H]2C3)n(-c2nccs2)c1 (stereo partly drawn) [Example 32, 1-[(1R,4S)-bicyclo[2.2.1]hept-2-yl]-N,N-bis{[1-(1,3-thiazol-2-yl)-1H-pyrrol-2-yl]methyl}methanamine]	4.1	6.39	
CC(C)CN(Cc1cccn1-c1nccs1)Cc1cccn1-c1nccs1 [Example 39, 2-methyl-N,N-bis{[1-(1,3-thiazol-2-yl)-1H-pyrrol-2-yl]methyl}propan-1-amine]	8.3	5.47	
c1ccc(CN(Cc2cccn2-c2nncs2)Cc2cccn2-c2nncs2)cc1 [Example 10, 1-phenyl-N,N-bis{[1-(1,3,4-thiadiazol-2-yl)-1H-pyrrol-2-yl]methyl}methanamine]	97	6.28	
N#Cc1ccc(CN(Cc2cccn2-c2nccs2)Cc2cccn2-c2nccs2)cc1 [Example 45, 4-[(bis{[1-(1,3-thiazol-2-yl)-1H-pyrrol-2-yl]methyl}amino)methyl]benzonitrile]	>32	6.02	
c1cc(CN(CCC2(c3ccncc3)CC2)Cc2cccn2-c2nccs2)n(-c2nccs2)c1 [Example 66, 2-[1-(pyridin-4-yl)cyclopropyl]-N,N-bis{[1-(1,3-thiazol-2-yl)-1H-pyrrol-2-yl]methyl}ethanamine]	14	6.70	
c1cc(CN(Cc2cccn2-c2nccs2)CC2CCCO2)n(-c2nccs2)c1 (stereo not drawn) [Example 33, 1-(tetrahydrofuran-2-yl)-N,N-bis{[1-(1,3-thiazol-2-yl)-1H-pyrrol-2-yl]methyl}methanamine]	16	5.34	
C[C@H](c1ccccc1Cl)N(Cc1cccn1-c1nncs1)Cc1cccn1-c1nncs1 [Example 19, (1R)-1-(2-chlorophenyl)-N,N-bis{[1-(1,3,4-thiadiazol-2-yl)-1H-pyrrol-2-yl]methyl}ethanamine]	>32	5.55	
c1cc(CN(Cc2cccn2-c2nccs2)C2CCCCC2)n(-c2nccs2)c1 [Example 52, N,N-bis{[1-(1,3-thiazol-2-yl)-1H-pyrrol-2-yl]methyl}cyclohexanamine]	7.2	7.00	
Cc1cccc(C)c1-n1ccc(CN(Cc2cccn2-c2nccs2)C(C)c2cnn(-c3cccc(F)c3)c2C)c1 (stereo not drawn) [Example 6, N-{[1-(2,6-dimethylphenyl)-1H-pyrrol-3-yl]methyl}-1-[1-(3-fluorophenyl)-5-methyl-1H-pyrazol-4-yl]-N-{[1-(1,3-thiazol-2-yl)-1H-pyrrol-2-yl]methyl}ethanamine]	0.57	< 6.24	
Cc1c(C(C)N(Cc2cccn2-c2nccs2)Cc2ncc(-c3ccccc3)n2C)cnn1-c1cccc(F)c1 (stereo not drawn) [Example 41, 1-[1-(3-fluorophenyl)-5-methyl-1H-pyrazol-4-yl]-N-[(1-methyl-5-phenyl-1H-imidazol-2-yl)methyl]-N-{[1-(1,3-thiazol-2-yl)-1H-pyrrol-2-yl]methyl}ethanamine]	5.6	< 5.25	
Clc1cnc(CN(Cc2cccn2-c2nccs2)Cc2cccn2-c2nccs2)c(Cl)c1 [Example 38, 1-(3,5-dichloropyridin-2-yl)-N,N-bis{[1-(1,3-thiazol-2-yl)-1H-pyrrol-2-yl]methyl}methanamine]	11	6.51	
Cn1nccc1N(Cc1cccn1-c1nncs1)Cc1cccn1-c1nncs1 [Example 9, 1-methyl-N,N-bis{[1-(1,3,4-thiadiazol-2-yl)-1H-pyrrol-2-yl]methyl}-1H-pyrazol-5-amine]	>32	5.31	
CC(Cc1cccs1)N(Cc1cccn1-c1nccs1)Cc1cccn1-c1nccs1 (stereo not drawn) [Example 64, N,N-bis{[1-(1,3-thiazol-2-yl)-1H-pyrrol-2-yl]methyl}-1-(thiophen-2-yl)propan-2-amine]		6.48	5.6
Cc1ccccc1CN(Cc1cccn1-c1nncs1)Cc1cccn1-c1nncs1 [Example 12, 1-(2-methylphenyl)-N,N-bis{[1-(1,3,4-thiadiazol-2-yl)-1H-pyrrol-2-yl]methyl}methanamine]	>10	7.19	
FC(F)(F)Cn1cc(CN(Cc2cccn2-c2nccs2)Cc2cccn2-c2nccs2)cn1 [Example 58, 1-[1-(1,3-thiazol-2-yl)-1H-pyrrol-2-yl]-N-{[1-(1,3-thiazol-2-yl)-1H-pyrrol-2-yl]methyl}-N-{[1-(2,2,2-trifluoroethyl)-1H-pyrazol-4-yl]methyl}methanamine]	49	6.28	
c1cnnc(N(Cc2cccn2-c2nccs2)Cc2cccn2-c2nccs2)c1 [Example 50, N,N-bis{[1-(1,3-thiazol-2-yl)-1H-pyrrol-2-yl]methyl}pyridazin-3-amine]	>100	< 4.00	
